Laboratory results: PubChem BioAssay AID248 (DTP/NCI, 2004)
“And” between values parts separate entries of the source, which are not always exact repeats. Identical values can stand only once. Inconclusive results and toxic doses are left out. Cut-off read from the data, not from the text of the source: active = T/C of 150% or more; inactive = T/C below 125%.

System: L1210 leukemia ip in BDF1 mice, survival T/C
Assay: NCI In Vivo Anticancer Drug Screen. Data for tumor model L1210 Leukemia (intraperitoneal) in B6D2F1 (BDF1) mice
Settings: endpoint: mean survival time, higher = longer survival
Procedure, shortened: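 Read-out is survival time, reported as the treated-group measurement over the vehicle-control measurement.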

[1] = dose: 100.0 mg/kg/injection, schedule: Q01DX001 (ip), vehicle: Klucel (hydroxypropylcellulose) (HPC)
[2] = dose: 200.0 mg/kg/injection, schedule: Q01DX001 (ip), vehicle: Klucel (hydroxypropylcellulose) (HPC)
[3] = dose: 400.0 mg/kg/injection, schedule: Q01DX001 (ip), vehicle: Klucel (hydroxypropylcellulose) (HPC)
[4] = dose: 100.0 mg/kg/injection, schedule: Q04DX003 (ip), vehicle: Klucel (hydroxypropylcellulose) (HPC)
[5] = dose: 200.0 mg/kg/injection, schedule: Q04DX003 (ip), vehicle: Klucel (hydroxypropylcellulose) (HPC)
[6] = dose: 100.0 mg/kg/injection, schedule: Q01DX009 (ip), vehicle: Klucel (hydroxypropylcellulose) (HPC)
[7] = dose: 200.0 mg/kg/injection, schedule: Q01DX009 (ip), vehicle: Klucel (hydroxypropylcellulose) (HPC)
[8] = dose: 400.0 mg/kg/injection, schedule: Q01DX009 (ip), vehicle: Klucel (hydroxypropylcellulose) (HPC)
[9] = dose: 100.0 mg/kg/injection, schedule: Q04DX002 (ip), vehicle: saline
[10] = dose: 200.0 mg/kg/injection, schedule: Q04DX002 (ip), vehicle: saline
[11] = dose: 400.0 mg/kg/injection, schedule: Q04DX002 (ip), vehicle: saline
[12] = dose: 100.0 mg/kg/injection, schedule: Q04DX003 (ip), vehicle: saline
[13] = dose: 200.0 mg/kg/injection, schedule: Q04DX003 (ip), vehicle: saline
[14] = dose: 400.0 mg/kg/injection, schedule: Q04DX003 (ip), vehicle: saline
[15] = dose: 100.0 mg/kg/injection, schedule: Q04DX002 (ip), vehicle: saline with Tween-80
[16] = dose: 200.0 mg/kg/injection, schedule: Q04DX002 (ip), vehicle: saline with Tween-80
[17] = dose: 400.0 mg/kg/injection, schedule: Q04DX002 (ip), vehicle: saline with Tween-80
[18] = dose: 100.0 mg/kg/injection, schedule: Q01DX009 (ip), vehicle: saline with Tween-80
[19] = dose: 200.0 mg/kg/injection, schedule: Q01DX009 (ip), vehicle: saline with Tween-80
[20] = dose: 400.0 mg/kg/injection, schedule: Q01DX009 (ip), vehicle: saline with Tween-80

Measured: T/C

CCOC(=O)Nc1ccc(OCC)cc1
inactive: dose: 50.0 mg/kg/injection, schedule: Q01DX001 (ip), vehicle: Klucel (hydroxypropylcellulose) (HPC) 98 % of control | [1] 101 % of control | [2] 102 % of control and 106 % of control | [3] 97 % of control and 98 % of control

NC(Cc1c[nH]c2cc(F)ccc12)C(=O)O (stereo not drawn)
inactive: dose: 100.0 mg/kg/injection, schedule: Q01DX009 (ip), vehicle: other 97 % of control | dose: 200.0 mg/kg/injection, schedule: Q01DX009 (ip), vehicle: other 96 % of control | dose: 400.0 mg/kg/injection, schedule: Q01DX009 (ip), vehicle: other 97 % of control

COc1ccc(-n2c(O)c(N=Nc3ccccc3C)c(=O)n(-c3ccccc3)c2=S)cc1
inactive: dose: 37.5 mg/kg/injection, schedule: Q01DX001 (ip), vehicle: Klucel (hydroxypropylcellulose) (HPC) 103 % of control | dose: 75.0 mg/kg/injection, schedule: Q01DX001 (ip), vehicle: Klucel (hydroxypropylcellulose) (HPC) 97 % of control | dose: 150.0 mg/kg/injection, schedule: Q01DX001 (ip), vehicle: Klucel (hydroxypropylcellulose) (HPC) 94 % of control

CCOC(=O)CNC(=O)Nc1ccccc1F
inactive: dose: 50.0 mg/kg/injection, schedule: Q01DX009 (ip), vehicle: gum acacia 93 % of control and 97 % of control | dose: 100.0 mg/kg/injection, schedule: Q01DX001 (ip), vehicle: gum acacia 101 % of control and 102 % of control | dose: 100.0 mg/kg/injection, schedule: Q04DX002 (ip), vehicle: gum acacia 96 % of control and 97 % of control | dose: 100.0 mg/kg/injection, schedule: Q04DX003 (ip), vehicle: gum acacia 94 % of control and 108 % of control | dose: 200.0 mg/kg/injection, schedule: Q01DX001 (ip), vehicle: gum acacia 100 % of control and 102 % of control | dose: 200.0 mg/kg/injection, schedule: Q04DX002 (ip), vehicle: gum acacia 93 % of control and 94 % of control | dose: 200.0 mg/kg/injection, schedule: Q04DX003 (ip), vehicle: gum acacia 94 % of control and 101 % of control | dose: 400.0 mg/kg/injection, schedule: Q01DX001 (ip), vehicle: gum acacia 95 % of control and 105 % of control | dose: 400.0 mg/kg/injection, schedule: Q01DX009 (ip), vehicle: gum acacia 90 % of control and 91 % of control | dose: 400.0 mg/kg/injection, schedule: Q04DX002 (ip), vehicle: gum acacia 96 % of control and 87 % of control | dose: 400.0 mg/kg/injection, schedule: Q04DX003 (ip), vehicle: gum acacia 95 % of control and 96 % of control

COc1ccc(C2=C(c3ccccc3)C(c3ccccc3)=C(c3ccc(OC)cc3)C2=O)cc1
inactive: dose: 100.0 mg/kg/injection, schedule: Q01DX001 (ip), vehicle: carboxymethylcellulose (CMC) 89 % of control | dose: 200.0 mg/kg/injection, schedule: Q01DX001 (ip), vehicle: carboxymethylcellulose (CMC) 89 % of control | dose: 400.0 mg/kg/injection, schedule: Q01DX001 (ip), vehicle: carboxymethylcellulose (CMC) 91 % of control

O=C(CNC(=O)C1CCCN1Sc1ccc([N+](=O)[O-])cc1[N+](=O)[O-])NCC(=O)OCc1ccccc1 (stereo not drawn)
inactive: [1] 98 % of control | [2] 103 % of control | [3] 98 % of control

CCCCCC(C[N+](C)(C)C)C(=O)/C=C/c1ccc(Cl)cc1 (stereo not drawn)
inactive: [4] 96 % of control | [5] 106 % of control

CCCCC(NC(C)=O)C(=O)O (stereo not drawn)
inactive: [6] 96 % of control and 100 % of control | [4] 90 % of control | [7] 86 % of control and 97 % of control | [5] 97 % of control | [8] 88 % of control | dose: 400.0 mg/kg/injection, schedule: Q04DX003 (ip), vehicle: Klucel (hydroxypropylcellulose) (HPC) 90 % of control

CC(C)(CC(=O)O)NC(=O)CN
inactive: [9] 94 % of control | [10] 91 % of control | [11] 97 % of control

CC(O)C(O)C(=O)OCc1ccccc1 (stereo not drawn)
inactive: dose: 100.0 mg/kg/injection, schedule: Q01DX009 (ip), vehicle: saline 117 % of control | [12] 101 % of control | dose: 200.0 mg/kg/injection, schedule: Q01DX009 (ip), vehicle: saline 102 % of control | [13] 103 % of control | dose: 400.0 mg/kg/injection, schedule: Q01DX009 (ip), vehicle: saline 110 % of control | [14] 98 % of control

Cc1ccc(CNC(=O)Nc2cccc(Cl)c2)cc1
inactive: dose: 100.0 mg/kg/injection, schedule: Q04DX002 (ip), vehicle: Klucel (hydroxypropylcellulose) (HPC) 115 % of control | dose: 200.0 mg/kg/injection, schedule: Q04DX002 (ip), vehicle: Klucel (hydroxypropylcellulose) (HPC) 102 % of control | dose: 400.0 mg/kg/injection, schedule: Q04DX002 (ip), vehicle: Klucel (hydroxypropylcellulose) (HPC) 108 % of control

O=C(CCCCC(=O)NO)NO
inactive: [15] 110 % of control | [9] 103 % of control | [16] 110 % of control | [10] 90 % of control | [17] 107 % of control | [11] 107 % of control

O=S1(=O)CC=CC1
inactive: [12] 103 % of control | [13] 97 % of control | [14] 97 % of control

COc1ccc(C(=O)C(C)C(O)C(=O)O)c(O)c1C (stereo not drawn)
inactive: [18] 96 % of control | [12] 97 % of control | [19] 100 % of control | [13] 94 % of control | [20] 102 % of control | [14] 98 % of control

COc1cc2c(cc1OC)C1CC(=O)CCN1CC2 (stereo not drawn)
inactive: [7] 101 % of control

COc1ccc(/C=N/NC(=O)c2ccccc2NC(=O)c2ccccc2Cl)cc1
inactive: dose: 50.0 mg/kg/injection, schedule: Q01DX009 (ip), vehicle: Klucel (hydroxypropylcellulose) (HPC) 91 % of control | [6] 107 % of control and 91 % of control | [7] 102 % of control | [8] 98 % of control and 91 % of control

CCCCC#CC(=O)OCCC(C)C
inactive: dose: 100.0 mg/kg/injection, schedule: Q04DX003 (ip), vehicle: saline with Tween-80 94 % of control | dose: 200.0 mg/kg/injection, schedule: Q04DX003 (ip), vehicle: saline with Tween-80 90 % of control | dose: 400.0 mg/kg/injection, schedule: Q04DX003 (ip), vehicle: saline with Tween-80 94 % of control

CCCCSCCO
inactive: [18] 89 % of control | [15] 96 % of control | [19] 96 % of control | [16] 93 % of control | [20] 107 % of control | [17] 86 % of control

CC(=O)N(C1=C(Cl)C(=O)c2ccccc2C1=O)c1ccc(Cl)cc1
inactive: dose: 75.0 mg/kg/injection, schedule: Q01DX001 (ip), vehicle: carboxymethylcellulose (CMC) 93 % of control | dose: 150.0 mg/kg/injection, schedule: Q01DX001 (ip), vehicle: carboxymethylcellulose (CMC) 92 % of control
